Experimental data taken from PMC8296708, “The pan HDAC inhibitor Givinostat improves muscle function and histological parameters in two Duchenne muscular dystrophy murine models expressing different haplotypes of the LTBP4 gene” (Skeletal Muscle, 2021).

Key:
[1] = system: in vivo pulmonary fibrosis model; set-up: method as in McKinsey TA, unpublished results; details: administered with the diet; ref McKinsey TA, unpublished results; cited from earlier work
[2] = system: murine models of diastolic dysfunction; set-up: method as in PMID 29437146; details: drug admixed to the diet; cited from earlier work
mdx mice [3] = experiment: Treadmill run to exhaustion test in mdx mice; type: in vivo, mouse (C57BL/10ScSn-Dmd^mdx/J); details: for Distance run: 37.5 mg/kg p.o.
From the text: For the efficacy studies, C57BL/10 J (Stock No: 000665) wild type (wt) and C57BL/10ScSn-Dmd^mdx/J (Stock No: 001801) 7–8-week-old male mice, DBA/2J wt (Stock No: 000671), and D2.B10-Dmd^mdx/J (Stock No: 013141) 6–7-week-old male mice were purchased from The Jackson Laboratories (Bar Harbor, Maine, USA). After 5 days of acclimatization in the animal facility, mice were randomized into different treatment groups based on their BW. C57BL/10J wt mice were assigned to the naive wt group (healthy mice that received no treatment, but were subjected to functional tests), whereas mdx mice were assigned to the following groups (9 mice/group; 4–5 mice/cage): naive mdx (mice that received no treatment, but were subjected to functional tests), vehicle (0.5% methylcellulose, p.o.), and Givinostat (0.1, 0.3, 1, 5, 10, 25, and 37.5 mg/kg, p.o.). DBA/2J mice were assigned to the naive wt group (healthy mice that received no treatment, but were subjected to functional tests), whereas D2.B10 mice were assigned to the following groups (12–13 mice/group; 4–5 mice/gage): vehicle (filtered tap water, p.o.), Givinostat (1, 5, 10, and 37.5 mg/kg, p.o.), prednisone 1 mg/kg, and Deflazacort 1 mg/kg (i.p.).
In the efficacy studies, Givinostat powder (ITF2357) was suspended in 0.5% methylcellulose (Sigma-Aldrich) and administered p.o. (by gavage) at the doses of 0.1, 0.3, 1, 5, 10, 25, and 37.5 mg/kg qdx5x15weeks (administration volume per mouse: 10 mL/kg) in mdx mice (see Additional Figure 1A). Vehicle-treated mdx mice received 0.5% methylcellulose suspension. Givinostat suspension was stored at + 4 °C, and it was freshly prepared every 7 days. Probably due to the impairment of their tongue and masticatory muscles, the oral gavage procedure turned out to be difficult to perform, and chronic treatment of D2.B10 mice by this route was considered to bear a high risk of damaging the esophagus. For this reason, Givinostat was administered in the drinking water. Givinostat was dissolved in filtered tap water and was administered in drinking water (throughout 24 h) for 105 days at the dose of 1, 5, 10, and 37.5 mg/kg/day, according to a daily estimate of water consumption of 4 ml/mouse/day. Water consumption was weekly monitored throughout the entire duration of the study weighing the bottle of each cage (maximum 4 mice per cage). Prednisone and Deflazacort powder (Sigma-Aldrich) was dissolved in 2% DMSO (Sigma-Aldrich) and diluted in sterile saline on injection days. Both drugs were administered weekly (for 15 weeks) by i.p. injection at the dose of 1 mg/kg in a volume of 10 mL/kg. Givinostat and steroid treatments started on days 7 and 9 of the experimental plan, respectively (see Additional Figure 1B). All mice were monitored daily and tolerability was evaluated on the basis of BW and clinical signs.
Run to exhaustion performance of mdx and D2.B10 mice was evaluated every 14 or 21 days, respectively, using a treadmill apparatus (Ugo Basile SRL, Italy). The exhaustion protocol consisted in an initially horizontal running at 5 m/min for 5 min after which the speed was increased 1 m/min every minute until exhaustion (the procedure was compliant with the standard operating procedures of TREAT–NMD Neuromuscular Network). The test was concluded when mice remained for more than 10 s on the shocker plate (for both C57BL/10 J and mdx mice) or when D2.B10 mice reached a maximum number of shocks. Due to the excessive stress caused to D2.B10 mice by this functional test, a maximum number of 600 and 150 shocks was set. These experimental conditions were also applied to the DBA/2J wt healthy mice.
After taking baseline readings for behavioral assays (FNmax and distance run by the animals), mice were re-randomized based on these two parameters, also considering the previous randomization performed on their BW.
The grip strength and run to exhaustion tests were performed during the light-cycle phase, in the early hours of the morning (8:00–11:30 am). […]

mdx mice [4] = experiment: Centralized nuclei (%) in muscles of mdx mice; type: in vivo, mouse (C57BL/10ScSn-Dmd^mdx/J); details: T16
From the text: Tibialis anterior (TA), gastrocnemius (GAS), DIA, and heart were collected from mice maintained under isoflurane anesthesia and sacrificed by cervical dislocation. These muscles were collected from C57BL/10J wt and mdx (5 mice/group) at the end of treatments and from DBA/2J wt and D2.B10 mice (5 mice/group) at two different time points to be examined by a pathologist (for more details see Additional Table 1). Due to the results obtained by the functional tests, muscles from only some treatment groups were analyzed in both DMD models (see Additional Table 1). All the collected muscles were fixed in 10% buffered formalin solution (Bio-optica, Milan, Italy) at + 4 °C for at least 48 h. After fixation, muscular samples were transversely trimmed, caged, and paraffin embedded overnight with an Automated Vacuum Tissue Processor Floor (ETP, Histo-Line Laboratories) and included in paraffin blocks. Serial transverse cross-sections (4 μm thick) were cut with a microtome (Leica RM 2255), collected onto uncoated glass slides, and stained using a standard protocol for hematoxylin and eosin (Mayer hematoxylin & Aqueous G Eosin 1%, Bio-Optica) and Sirius Red staining (Direct Red 80, Sigma-Aldrich). For the image analysis and quantitation, hematoxylin and eosin- and Sirius Red-stained slides were examined with an Olympus BX51 light microscope. From each sample, 1 to 3 random microphotographs at the magnification of × 4 and × 10 (TA, GAS and heart) or × 20 (DIA) were collected using Image-Pro Plus system. The digital images were processed by a pathologist using ImageJ software (U.S. National Institutes of Health, Bethesda, MD, USA). To quantify CSA and centralized nuclei (%) on hematoxylin and eosin-stained sections, one hundred myofibers were manually measured for each muscle/mouse using a tablet pen (Wacom Intruos) and analyzed by the ImageJ software after a linear calibration of 150 μm. The fibrotic area, corresponding to the area stained in red, was compared to the total area of the tissue section, and the results were expressed as percentage fibrosis. The % of fibrosis of muscles in the different treatment groups was expressed by averaging the three values obtained from each muscle.

**Q.** Which “Activity in in vivo pulmonary fibrosis model” value [1] does the source give for CCN(CC)Cc1ccc2cc(COC(=O)Nc3ccc(C(=O)NO)cc3)ccc2c1 [Givinostat] here?
**A.** inactive

**Q.** What about the “Efficacy in two murine models of diastolic dysfunction with preserved ejection fraction” value [2] of the same compound?
**A.** highly efficacious

**Q.** What about the Distance run (mdx mice [3]; day 31) of the same compound?
**A.** 785 ± 97 m

**Q.** And the Distance run (mdx mice [3]; day 44)?
**A.** 693 ± 103 m

**Q.** And the Distance run (mdx mice [3]; day 94)?
**A.** 410 ± 40 m

**Q.** What about the “Lowest effective dose on time to exhaustion” value (mdx mice [3]; day 94) of the same compound?
**A.** 0.3 mg/kg

**Q.** What about the Time to exhaustion (mdx mice [3]; highest dose (37.5 mg/kg), day 94, vs vehicle) of the same compound?
**A.** significantly prolonged the time to exhaustion

**Q.** What about the “Distance run, significance of doses lower than 37.5 mg/kg” value (mdx mice [3]; lower doses, trend of dose-response) of the same compound?
**A.** did not reach significance

**Q.** What about the “Nuclear centralization in DIA” value (mdx mice [4]; 1 mg/kg) of the same compound?
**A.** 57 ± 2.9%

**Q.** What about the “Nuclear centralization in GAS” value (mdx mice [4]; 1 mg/kg) of the same compound?
**A.** 67.6 ± 2.4%

**Q.** What about the “Nuclear centralization in TA” value (mdx mice [4]; 1 mg/kg) of the same compound?
**A.** 71 ± 1.6%

**Q.** What about the “Nuclear centralization in DIA” value (mdx mice [4]; 10 mg/kg) of the same compound?
**A.** 61.4 ± 3.5%

**Q.** What about the “Nuclear centralization in GAS” value (mdx mice [4]; 10 mg/kg) of the same compound?
**A.** 58 ± 3%

**Q.** What about the “Nuclear centralization in TA” value (mdx mice [4]; 10 mg/kg) of the same compound?
**A.** 73.2 ± 3.7%

**Q.** What about the “Nuclear centralization in DIA” value (mdx mice [4]; 37.5 mg/kg) of the same compound?
**A.** 41.4 ± 4.5%

**Q.** And the “Nuclear centralization in GAS” value (mdx mice [4]; 37.5 mg/kg)?
**A.** 61.3 ± 3.8%

**Q.** And the “Nuclear centralization in TA” value (mdx mice [4]; 37.5 mg/kg)?
**A.** 60.8 ± 2.5%
